Read-outs that look alike come from different tables or passages of the source.
What was measured:
H3K36me3 in A549 cells = assay: In-Cell Western (ICW) assay of SETD2 inhibitors (A549 assay); type: cell-based, human
Procedure, shortened: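 A549 cells seeded at 4,000/well onto compound and incubated 3 days at 37° C. Methanol-fixed cells stained overnight at 4° C with anti-H3K36me3 (1:1000), then IRDye 800CW secondary with DRAQ5 DNA counterstain. Plates read by Licor imaging at 700 and 800 channels.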

SETD2(1434-1711) = molecular target: T1, SETD2(1434-1711) (Homo sapiens, UniProt Q9BYW2); assay: SETD2 (1434-1711) assay; type: biochemical; details: read-out: SETD2 (1434-1711)
T1 construct: SETD2 (1434-1711) Assay; catalogue N/A
T1 sequence (Q9BYW2 1434-1711): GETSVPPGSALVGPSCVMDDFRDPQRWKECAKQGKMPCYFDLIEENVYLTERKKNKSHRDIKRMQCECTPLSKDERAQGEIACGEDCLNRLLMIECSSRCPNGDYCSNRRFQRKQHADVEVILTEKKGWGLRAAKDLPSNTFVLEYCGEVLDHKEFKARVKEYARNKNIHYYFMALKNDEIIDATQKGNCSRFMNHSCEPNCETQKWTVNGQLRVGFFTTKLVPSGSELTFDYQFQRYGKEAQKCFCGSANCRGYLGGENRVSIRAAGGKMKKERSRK

[1] = Homo sapiens, A549 cells, read-out: SETD2 A549
[2] = A549 cells, read-out: SETD2 A549

| Structure (SMILES) | IC50 (H3K36me3 in A549 cells; [1]) [nM] | IC50 (SETD2(1434-1711)) [nM] | IC50 (H3K36me3 in A549 cells; [2]) [nM] | IC50 (H3K36me3 in A549 cells; Homo sapiens, A549, read-out: SETD2 A549) [nM] |
| --- | --- | --- | --- | --- |
| CNC(=O)N1CCN(c2cccc(NC(=O)c3cc4c(F)ccc(C)c4[nH]3)c2)CC1 [compound 139] | 300 | 50 |  |  |
| Cc1ccc(F)c2cc(C(=O)Nc3cc(N4CCN(C)CC4)c4ncccc4c3)[nH]c12 [compound 350] | > 2000 | 80 |  |  |
| Cc1ccc(F)c2cc(C(=O)Nc3cnn(C4CCC(N(C)C)CC4)c3)[nH]c12 (stereo not shown) [compound 565] | > 25000 | 11600 |  |  |
| Cc1ccc(F)c2cc(C(=O)N[C@@H]3CCCC(N4CCC5(CCC(=O)N5)CC4)C3)[nH]c12 (stereo partly shown) [compound 894] | 1400 | 30 |  |  |
| Cc1ccc(F)c2cc(C(=O)Nc3cc(N4CCN(C)CC4)n4ccnc4c3)[nH]c12 [compound 355] | > 2000 | 500 |  |  |
| CCc1cccc2cc(C(=O)NC(CCC(=O)N3CCOCC3)c3ncccc3C)[nH]c12 (stereo not shown) [compound 464] |  | 8400 | 6600 |  |
| Cc1ccc(F)c2cc(C(=O)Nc3cccc(N4CCN(C)CC4CO)c3)[nH]c12 (stereo not shown) [compound 277] | 900 | 200 |  |  |
| Cc1ccc(N2CCN(S(=O)(=O)CCN)CC2)cc1NC(=O)c1cc2cccc(C)c2[nH]1 [compound 476] | 9100 | 800 |  |  |
| Cc1ccc(F)c2cc(C(=O)Nc3cccc(CC(N)=O)c3)[nH]c12 [compound 300] | 1200 | 200 |  |  |
| Cc1cccc2cc(C(=O)Nc3cn4ccnc4cn3)[nH]c12 [compound 623] |  | > 200000 | > 25000 |  |
| Cc1ccc(F)c2cc(C(=O)NC3CCCC(N4CCN(C5CCOC5)C(=O)C4)C3)[nH]c12 (stereo not shown) [compound 974] |  | 2600 | > 2000 |  |
| CC(=O)N(C)C1CCCN(c2cccc(NC(=O)c3cc4c(F)ccc(C)c4[nH]3)c2)C1 (stereo not shown) [compound 42] |  | 20 | 100 |  |
| Cc1ccc(F)c2cc(C(=O)Nc3cccc(N4CCC(N5CCCC5)CC4)c3)[nH]c12 [compound 180] | 400 | 30 |  |  |
| Cc1cccc2cc(C(=O)Nc3cccc(CN4CCOCC4)c3)[nH]c12 [compound 478] | 9400 | 4100 |  |  |
| Cc1ccc(F)c2cc(C(=O)Nc3cccc(-c4ccccn4)c3)[nH]c12 [compound 285] | 1000 | 40 |  |  |
| Cc1ccc(F)c2cc(C(=O)NC3CCCC(N4CCN(C5CCOC5)C(=O)C4)C3)[nH]c12 (stereo not shown) [compound 973] |  | 40 | 200 |  |
| Cc1ccc(F)c2cc(C(=O)Nc3cc(F)cc(N4CCN(C)C(=O)C4)c3)[nH]c12 [compound 20] | 60 | 9 |  |  |
| Cc1ccc(F)c2cc(C(=O)N[C@@H]3CCC[C@H](N4CCN(C(=O)OC5CCOCC5)CC4)C3)[nH]c12 [compound 999] | 60 | 10 |  |  |
| Cc1ccc(F)c2cc(C(=O)Nc3cc(F)cc(N4CCN(C(=O)C(C)N(C)C)CC4)c3)[nH]c12 (stereo not shown) [compound 43] |  | 7 | 100 |  |
| Cc1ccc(F)c2cc(C(=O)Nc3ccnc(N4CCN(C)CC4)c3)[nH]c12 [Cpd. No. 340, 4-fluoro-7-methyl-N-(2-(4-methylpiperazin-1-yl)pyridin-4-yl)-1H-indole-2-carboxamide] |  | 200 |  | 1700 |
| Cc1ccc(F)c2cc(C(=O)NC(c3nccc4ccccc34)C3CC3)[nH]c12 (stereo not shown) [Cpd. No. 507, N-(cyclopropyl(isoquinolin-1-yl)methyl)-4-fluoro-7-methyl-1H-indole-2-carboxamide] | 15100 | 1100 |  |  |
| Cc1ccc(F)c2cc(C(=O)N[C@@H]3CCC[C@H](N4CCn5c(c[nH]c5=O)C4)C3)[nH]c12 [compound 1059] | 600 | 20 |  |  |
| Cc1ccc(F)c2cc(C(=O)NC3CCCC(N4CCC(N(C)C(=O)CO)C4)C3)[nH]c12 (stereo not shown) [compound 996] |  | 800 | > 2000 |  |
| CC(=O)N1CCN(C2CCCC(NC(=O)c3cc4c(F)ccc(C)c4[nH]3)C2)CC1CO (stereo not shown) [compound 1022] |  | 2600 | > 2000 |  |
| Cc1ccc(F)c2cc(C(=O)NC(c3nc4ccccn4c3C)C3CC3)[nH]c12 (stereo not shown) [compound 400] |  | 300 | 2400 |  |

| Structure (SMILES) | IC50 (H3K36me3 in A549 cells; [1]) [nM] | IC50 (SETD2(1434-1711)) [nM] | IC50 (H3K36me3 in A549 cells; [2]) [nM] | IC50 (H3K36me3 in A549 cells; Homo sapiens, A549, read-out: SETD2 A549) [nM] |
| --- | --- | --- | --- | --- |
| COCC(=O)N1CCN([C@H]2CCC[C@@H](NC(=O)c3cc4c(F)ccc(C)c4[nH]3)C2)CC1 [compound 846] |  | 20 | 100 |  |
| Cc1ccc(F)c2cc(C(=O)Nc3cccc(N4CCC(N(C)CCO)C4)c3)[nH]c12 (stereo not shown) [compound 148] | 300 | 20 |  |  |
| CCN(C(=O)CO)C1CCN(C2CCCC(NC(=O)c3cc4c(F)ccc(C)c4[nH]3)C2)C1 (stereo not shown) [compound 1129] |  | 10 | 100 |  |
| CC(=O)N1CCN([C@@H]2CCC[C@@H](NC(=O)c3cc4c(F)ccc(C)c4[nH]3)C2)CC1C (stereo partly shown) [compound 907] | 1700 | 900 |  |  |
| CC(=O)N1CC2CN(C3CCCC(NC(=O)c4cc5c(F)ccc(C)c5[nH]4)C3)CC2C1 (stereo not shown) [compound 1177] |  | 30 | 300 |  |
| Cc1ccc(F)c2cc(C(=O)Nc3cccc(N4CC[C@H](N(C)C)[C@H](F)C4)c3)[nH]c12 [compound 186] | 400 | 30 |  |  |
| Cc1ccc(F)c2cc(C(=O)Nc3cc(F)cc(N4CCC(N5CCn6ccnc6C5)C4)c3)[nH]c12 (stereo not shown) [compound 29] |  | 20 | 70 |  |
| Cc1ccc(F)c2cc(C(=O)Nc3cccc(N4CCCC(N)C4)c3)[nH]c12 (stereo not shown) [compound 310] | 1300 | 50 |  |  |
| Cc1ccc(F)c2cc(C(=O)N[C@@H]3CCC[C@@H](N4CCN(C)CC4=O)C3)[nH]c12 [compound 917] | > 2000 | > 10000 |  |  |
| Cc1cncnc1C(NC(=O)c1cc2cccc(C)c2[nH]1)C1CC1 (stereo not shown) [compound 493] | 13100 | > 50000 |  |  |
| Cc1ccc(F)c2cc(C(=O)Nc3cccc(N4CCC(N5CCC5)C4)c3)[nH]c12 (stereo not shown) [compound 178] | 400 | 10 |  |  |
| Cc1ccc(F)c2cc(C(=O)NC3CCCC(N4CCN5C(=O)CCCC5C4)C3)[nH]c12 (stereo not shown) [compound 1078] |  | 10 | 30 |  |
| Cc1ccc(F)c2cc(C(=O)Nc3ncc(C4CCN(C)CC4)[nH]3)[nH]c12 [compound 371] | > 2000 | > 10000 |  |  |
| Cc1ccc(F)c2cc(C(=O)NC3CCCC(N4CCN5C(=O)CCCC5C4)C3)[nH]c12 (stereo not shown) [compound 1080] |  | 500 | 1700 |  |
| Cc1ccc(F)c2cc(C(=O)Nc3cccc(N4CCN5CCCC5C4)c3)[nH]c12 (stereo not shown) [compound 220] |  | 40 | 500 |  |
| Cc1ccc(F)c2cc(C(=O)Nc3cccc(-c4cnco4)c3)[nH]c12 [compound 108] | 200 | 60 |  |  |
| Cc1ccc(F)c2cc(C(=O)Nc3cccc(-c4ccc(CO)cc4)c3)[nH]c12 [compound 346] |  | 100 | 1800 |  |
| Cc1ccc(F)c2cc(C(=O)N[C@@H]3CCC[C@H](N4CCN(C)CC4=O)C3)[nH]c12 [compound 916] | 1300 | 1000 |  |  |
| Cc1ccc(F)c2cc(C(=O)Nc3cccc(N4CCC(O)CC4)c3)[nH]c12 [compound 126] | 300 | 50 |  |  |
| Cc1ccc(F)c2cc(C(=O)N[C@@H]3CCC[C@@H](N4CCn5c(nnc5C(F)(F)F)C4)C3)[nH]c12 [compound 990] | > 2000 | 3200 |  |  |
| CC(=O)N(C)C1CN(C2CCCC(NC(=O)c3cc4c(F)ccc(C)c4[nH]3)C2)C1 (stereo not shown) [compound 960] |  | 20 | > 2000 |  |
| Cc1ccc(F)c2cc(C(=O)Nc3cccc(N(C)C4CCN(C)CC4)c3)[nH]c12 [compound 351] |  | 90 | > 2000 |  |
| Cc1cccnc1C(Cc1cnn(CC2CC2)c1)NC(=O)c1cc2c(F)ccc(C)c2[nH]1 (stereo not shown) [compound 141] | 300 | 40 |  |  |
| Cc1ccc(F)c2cc(C(=O)Nc3cccc(-c4ccno4)c3)[nH]c12 [compound 196] | 400 | 100 |  |  |
| CC(=O)N1CCCC12CCN(c1cc(F)cc(NC(=O)c3cc4c(F)ccc(C)c4[nH]3)c1)CC2 [compound 104] |  | 30 | 200 |  |
